The record followed here is patent publication US20120220554A1, “Combretastatins for Prevention of Posterior Capsule Opacification” (OXIGENE, INC., priority 2010, published 2012).

Assay [1] has as its system Phosphorylated JNK. The assay is described as follows: Phosphorylated JNK level. The class given is cell-based, bovine. The settings on record: CA4P treatment (data not shown). As for the experimental part:
(§1) Phospho-Erk ½ levels were elevated immediately after the end of CA4P exposure in both control and treated cells and decreased 1 h after the end of CA4P exposure in both control and treated cells (FIG. 7). […] Therefore, it could be hypothesized that, in primary cells, a general stress response due to dissection will mask CA4P's effect on Erk phosphorylation. Phosphorylated p38 and JNK levels were not affected by CA4P treatment (data not shown).

For assay [2], the system named is Phosphorylated p38. The assay is described as follows: Phosphorylated p38 level. Type of assay: cell-based, bovine. The settings on record: CA4P treatment (data not shown). As for the experimental part:
as §1

Assay [3] has as its system polymerized tubulin in BMI-immortalized bovine lens epithelial (BIE) cells. Nature of the assay: Dimer/polymer tubulin extraction and anti-tubulin western blot in BIE cells. Type of assay: cell-based. The settings on record: single 30 min treatment with 1 μM CA4P, at 30 min after start and up to 24 h after end of exposure (FIG. 4). As for the experimental part: BMI-immortalized bovine lens epithelial (BIE) cells, on plastic, and primary bovine lens epithelial cells, on their original in vivo basement membrane, (the eye lens capsule), were cultured in 10% fetal calf serum (FCS)-supplemented medium at 37° C. prior to 30 min exposure to 1 μM CA4P, after which they were returned to 10% FCS-supplemented medium. The relatively short exposure was chosen to approximate the duration of a cataract surgery procedure. At a range of time points following exposure, cells were subjected to cell viability assay (MTT-based assay, PROMEGA, UK), immunoblotting or immunofluorescence.
BMI-immortalized bovine lens epithelial cells (BIE cell line, produced in Roy Quinlan's Laboratory, University of Durham, UK), were grown at 37° C., 5% CO2, in 10 cm diameter Petri dishes in 10% fetal calf serum (FCS)-supplemented tissue culture medium (Sigma-Aldrich, UK). When nearing confluence, they were exposed to 1 μM combretastatin A 4-phosphate (CA4P) (OXiGENE, UK) diluted in 10% FCS-supplemented medium for 30 min, after which the cells were returned to 10% FCS-supplemented medium. Immediately after the end of CA4P exposure, cells were extracted to assess the proportion of dimer/polymer tubulin, as described in Lieuvin et al., 1994 (J. Cell Biology 124 (6):985-996). […]
The proportion of dimer/polymer tubulin was assessed by western blotting. […]
(In general: Immunoblotting shows a protein as a band on a membrane.)

Assay [4] has as its system polymerized tubulin in primary bovine lens epithelial cells. Nature of the assay: Anti-tubulin immunofluorescence of primary lens epithelial cells on the lens capsule. The conditions noted are these: single 30 min treatment with 1 μM CA4P, at 30 min after start and up to 48 h after end of exposure (FIG. 5). Type of assay: cell-based. The text has this:
Bovine eyes were obtained from Coast and County Meat Group (Felling, UK) on the day of culling and lenses were dissected out of the eyes under a sterile tissue culture hood as described below. After generous dousing in 70% ethanol, eyes were cut open using a major surgical blade (Swann-Morton, UK) via a single cut, parallel and posterior to the cornea-conjunctiva limit. The eye was then inverted and the vitreous removed. The lens was freed from the ciliary fibers and immediately placed anterior face down in a SYLGARD-covered (Dow Corning, Germany) well of a 12-well tissue culture plate (Greiner Bio-One, UK). The posterior side of the lens capsule was cut in a Y-shape fashion by a thin scalpel and the resulting flaps pulled back and pinned onto the SYLGARD. The fiber mass was removed by gently rolling it off the anterior lens capsule, thus leaving most of the primary lens epithelial cell layer attached onto the anterior lens capsule. This primary lens epithelial cell layer was then cultured on its original lens capsule at 37° C., 5% CO2, in 0% FCS-supplemented tissue culture.
[…] Immediately after the end of the CA4P exposure and 48 h after the end of the CA4P exposure, the presence of polymerized tubulin in the primary lens epithelial cell layers was investigated by immunofluorescence. […]

Regarding `COc1ccc(/C=C\c2cc(OC)c(OC)c(OC)c2)cc1OP(=O)(O)O` [CA4P, combretastatin A-4 phosphate], the “Phosphorylated JNK levels” value in assay [1] is “not affected”. The “Phosphorylated p38 levels” value in assay [2] is “not affected”. Besides, the “polymerized tubulin (western blot)” value in assay [3] is on record as “loss of polymerized tubulin”. Also, in assay [4], the “polymerized tubulin (immunofluorescence)” value was “loss of polymerized tubulin”.
